These results are taken from patent US5854216A, “Marker for growth hormone-releasing factor receptors” (Universite de Montreal, priority 1996, dated 1998).

Read-outs that look alike come from different tables or passages of the source. Ends that are not written are not given here. * marks the point of attachment. FITC = O=C1OC2(c3ccc(O)cc3Oc3cc(O)ccc32)c2ccc(NC(=S)*)cc21; X1 = O=C(O)c1cc(C(=O)*)ccc1-c1c2ccc(=O)cc-2oc2cc(O)ccc12

Data set [1] addresses T1, GRF receptors ([^125 I-Tyr^10 ]hGRF(1-44)NH2 binding sites in rat adenopituitary) (Rattus norvegicus, UniProt Q02644).
T1 construct: from tissue; host or cells: rat anterior pituitary homogenate
T1 sequence (Q02644 23-423 isoform Q02644-2 limits assumed): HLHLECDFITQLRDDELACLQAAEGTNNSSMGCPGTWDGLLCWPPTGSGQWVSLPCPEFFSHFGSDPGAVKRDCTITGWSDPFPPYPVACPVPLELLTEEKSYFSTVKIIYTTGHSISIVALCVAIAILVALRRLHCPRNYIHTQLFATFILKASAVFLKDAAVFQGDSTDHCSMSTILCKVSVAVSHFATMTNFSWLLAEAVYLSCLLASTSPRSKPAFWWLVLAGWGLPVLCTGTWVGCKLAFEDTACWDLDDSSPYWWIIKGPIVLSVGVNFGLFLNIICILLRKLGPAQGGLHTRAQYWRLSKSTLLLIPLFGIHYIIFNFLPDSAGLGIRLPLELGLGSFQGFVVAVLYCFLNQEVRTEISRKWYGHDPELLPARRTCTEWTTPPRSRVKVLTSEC
In words: Competitive binding assay with [^125 I-Tyr^10 ]hGRF(1-44)NH2 on anterior pituitary homogenates. In outline: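 Rat anterior pituitary homogenates (70 to 75 μg protein) in 50 mM Tris-HCl pH 7.4 with 5 mM EDTA, 5 mM MgCl2, 0.42% BSA were competed with 35-50 pM radioligand against analogues at 0-1000 nM. Non-specific binding defined with 2.4 μM rGRF(1-29)NH2; 60 min at 23° C, stopped by centrifugation, pellet gamma-counted. hGRF(1-29)NH2 run in each experiment as reference.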

Data set [2] addresses T2, GRF receptor (adenylate cyclase activity in rat adenopituitary) (Rattus norvegicus, UniProt Q02644).
T2 construct: from tissue; host or cells: rat anterior pituitary homogenate
T2 sequence (Q02644 23-423 isoform Q02644-2 limits assumed): T1 sequence (Q02644 23-423 isoform Q02644-2 limits assumed)
In words: Adenylate cyclase assay on anterior pituitary homogenates (cAMP by HPLC). The format is biochemical. As to the method:
The adenylate cyclase activity Nε-CF-[Lys^31 ]hGRF was performed on anterior pituitary homogenates as previously described (Lefrangois L. and Gaudreau P., J. Chromatogr., 1993, 619:116-120). Briefly, anterior pituitaries (pit.) were dissected out, rinsed and homogenized for 8 sec with a Micro Ultrasonic Cell Disrupter™, in ice-cold 20 mM Tris-HCl buffer (pH 7.5) containing 2 mM MgCl2 and 250 mM sucrose (1 pit./0.5 ml).
Samples of anterior pituitary homogenates (30-40 μg protein) were incubated in 1.5 ml Eppendorf™ tubes with 30 mM Tris-HCl, 5 mM MgCl2, 0.5 mM EGTA, containing 0.5 mM ATP, 1 mM IBMX, 10 μM GTP and an ATP regenerating system consisting of 2 mM creatine phosphate, 0.1 mg/ml creatine kinase and, 0.1 mg/ml myokinase in a final volume of 120 μl. Incubations were initiated by adding 20 μl of the homogenate to the reaction mixture which had previously been equilibrated at 37° C. for 2 min. The reactions were carried out for 8 min at 37° C. and stopped by heating the samples in boiling water for 4 min. Samples were centrifuged (12000 g, 5 min, 4° C.) and supernatants were filtered through 0.45 μm Millex HV4 ™ filters and transferred to autosampler vials for HPLC quantification of cAMP.

A short description of data set [3]: Solubility in water or buffer. Particulars: distilled water or aqueous buffer. The data set is classed as physicochemical.
The nature of data set [4]: Storage stability / shelf life. The data set is classed as physicochemical.
The nature of data set [5]: Toxicity (statement only).
Data set [6] addresses T3, GRF receptor of rat adenopituitary (rat, UniProt Q02644-2).
T3 sequence: T1 sequence (Q02644 23-423 isoform Q02644-2 limits assumed)
In words: displacement of 125I-Tyr10 hGRF(1-44)NH2 from rat anterior pituitary homogenate. As to the method:
(§1) The binding of [^125I-Tyr^10]hGRF(1–44)NH_2 was performed on anterior pituitary homogenates as previously described (Gaudreau P. et al., J. Biol. Chem., 1992, 35:1864–1869). Briefly, anterior pituitaries (pit.) were dissected out, rinsed and homogenized for 8 sec with a Micro Ultrasonic Cell Disrupter™, in ice-cold 50 mM Tris-HCl buffer, pH 7.4, containing 5 mM MgCl_2 and 5 mM EDTA (1 pit./0.5 ml). These homogenates were used immediately. Competition studies were performed using 35–50 pM [^125I-Tyr^10]hGRF(1–44)NH_2 as radio-ligand, 50 µl of homogenate (70 to 75 µg of protein), and increasing concentrations of Nε-CF-[Lys^31]hGRF or other GRF analogues (0–1000 nM) or with 2.4 µM rGRF(1–29)NH_2 for determination of non-specific binding, in a total volume of 300 µl of Tris-HCl buffer, pH 7.4, containing 5 mM EDTA, 5 mM MgCl_2 and 0.42% BSA. Incubations were carried out at 23° C. for 60 min and stopped by centrifugation (12,000 g, 5 min, at 4° C.). The radioactivity content in the pellet was measured by gamma counting. The affinity of hGRF(1–29)NH_2 was tested in each experiment to assess the validity of the assay and determine the relative affinity of the analogues.
75 to 97% of their initial concentration are recovered at the end of the binding assay (Gaudreau P. et al., J. Biol. Chem., 1992, 35:1864–1869). The Ligand computerized program was used to analyse competition curves of all the GRF analogues reported in Tables 4, 7 and 11, and to determine their IC$50$ and Hill coefficient. The Hill values indicate that all these peptides bind to the high and low affinity GRF binding sites found in the anterior pituitary.
A general note: Loss of bound radioactivity is the signal in a displacement assay; it reports binding, not function.

Data set [7] has as its target T3, GRF receptor of rat adenopituitary. Described as above. As to the method: as §1
75 to 97% of their initial concentration are recovered at the end of the binding assay (Gaudreau P. et al., J. Biol. Chem., 1992, 35:1864–1869). […]
This is another data set of the same source.

Data set [8] has the same target.

For the molecule “H-YADAIFTNSYRKVLGQLSARKLLQDIMSRQK(X1)GESNQERGARARL-NH2 [Nε-5-carboxyfluoresceinyl-[Lys^31]hGRF(1-44)NH2]”, the “affinity for adenopituitary GRF receptors (in words)” value in data set [1] is “high affinity”. In addition, the Hill coef. in data set [1] (Table 4) worked out at 0.55 ± 0.03. Besides, the Relative affinity in data set [1] (Table 4, ratio IC50 of hGRF(1-29)NH2 /IC50 analogue) is recorded as 73 ± 27%. For the same molecule, the “agonist character at the GRF receptor” value in data set [2] is on record as “full GRF receptor agonist”. In data set [2] (Table 5, ratio EC50 of hGRF(1-29)NH2 /EC50 analogue), the Relative activity is 55 ± 36%. Moreover, the solubility entry in data set [3] was “freely soluble”. Also, the shelf life entry in data set [4] is given as “at least one year”. For the same molecule, the stability result in data set [4] (protected from light and maintained at 4° C.) is reported as “stable”. Besides, the toxicity in data set [5] was determined as 100% non-toxic.
On to {FITC}-YADAIFTNSYRKVLGQLSARKLLQDIMSRQQGESNQERGARARL-NH2 [Nα-fluorescein-5-thiocarbamyl!hGRF(1-44)NH2], for which the “Relative affinity (%) against hGRF(1-29)NH2” value (shortened to “Relative affinity (%)”) in data set [6] turned out to be 19%.
The IC50 is the concentration needed to halve the response being measured. Higher therefore signals weaker potency. On to {FITC}-YADAIFTNSYRKVLGQLSARKLLQDIMSR-NH2 [Nα-fluorescein-5-thiocarbamyl!hGRF(1-29)NH2], for which, in data set [6], the IC50 worked out at 14 nM and the “Relative affinity (%)” value came to 19%.
On to YADAIFTNSYRKVLGQLSARKLLQDIMSR-NH2 (ligand) [hGRF(1-29)NH2], for which the IC50 in data set [7] is 2.4 nM. In data set [8], the adenylate cyclase activity: EC50 of cAMP accumulation (column head prints IC50) came to 36.7 nM and the adenylate cyclase activity: Relative activity (%) was 100%. Moreover, in data set [6], the “Relative affinity (%)” value turned out to be 100%.
